Data reported in US6060516A, “N^1 -propargylhydrazines, N^2 -propargylhydrazines and their analogs for the treatment of depression, anxiety and neurodegeneration” (CV Technologies, Inc., priority 1998, dated 2000).

Experiments:
[1] = molecular target: T1, rat brain monoamine oxidase-B (Rattus norvegicus, UniProt P19643); test: Monoamine oxidase-B inhibiting activity in vitro (radiochemical, β-phenylethylamine substrate, rat brain homogenate); assay type: biochemical; conditions: for inhibition at 100 µM: 1 × 10^-4 M; for inhibition at 10 µM: 1 × 10^-5 M; for inhibition at 1 µM: 1 × 10^-6 M; for inhibition at 0.1 µM: 1 × 10^-7 M; for inhibition at 0.01 µM: 1 × 10^-8 M
T1 construct: appropriately diluted homogenates of rat brain or liver; from tissue; host or cells: rat brain or liver homogenate
T1 sequence (P19643 1-520): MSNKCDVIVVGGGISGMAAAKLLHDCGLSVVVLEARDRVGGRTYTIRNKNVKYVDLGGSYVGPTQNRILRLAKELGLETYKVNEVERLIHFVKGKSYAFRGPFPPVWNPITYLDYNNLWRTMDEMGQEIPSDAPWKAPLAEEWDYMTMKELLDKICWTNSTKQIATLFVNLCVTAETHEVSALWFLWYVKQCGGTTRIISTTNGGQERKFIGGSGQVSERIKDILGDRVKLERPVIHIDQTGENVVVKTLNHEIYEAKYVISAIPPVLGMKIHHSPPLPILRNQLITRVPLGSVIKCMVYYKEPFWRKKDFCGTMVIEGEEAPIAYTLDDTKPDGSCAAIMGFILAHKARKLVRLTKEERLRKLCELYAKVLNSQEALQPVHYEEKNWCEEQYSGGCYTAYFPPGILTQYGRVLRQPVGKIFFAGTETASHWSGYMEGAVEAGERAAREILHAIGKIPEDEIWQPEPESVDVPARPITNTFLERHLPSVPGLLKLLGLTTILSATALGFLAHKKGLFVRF
Procedure: Radiolabelled β-phenylethylamine was employed as a substrate for monoamine oxidase-B. Various concentrations of the compounds of interest were incubated in appropriately diluted homogenates of rat brain or liver in a 0.2 M potassium phosphate buffer. Incubations proceeded at 37° C. for 10 minutes. Incubation was terminated by the addition of acid and the radiolabelled product (phenylacetaldehyde and phenylacetic acid) was extracted and quantified by liquid scintillation counting procedures. Incubations were done in triplicate and incubations containing phenelzine were included for comparison. The percent inhibition of monoamine oxidase-B activity compared to controls containing no drug was calculated.

[2] = molecular target: T2, rat brain monoamine oxidase-A (Rattus norvegicus, UniProt P21396); test: Monoamine oxidase-A inhibiting activity in vitro (radiochemical, 5-hydroxytryptamine substrate, rat brain homogenate); assay type: biochemical; conditions: for inhibition at 100 µM: 1 × 10^-4 M; for inhibition at 10 µM: 1 × 10^-5 M; for inhibition at 1 µM: 1 × 10^-6 M; for inhibition at 0.1 µM: 1 × 10^-7 M; for inhibition at 0.01 µM: 1 × 10^-8 M
T2 construct: appropriately diluted homogenates of rat brain or liver; from tissue; host or cells: rat brain or liver homogenate
T2 sequence (P21396 1-526): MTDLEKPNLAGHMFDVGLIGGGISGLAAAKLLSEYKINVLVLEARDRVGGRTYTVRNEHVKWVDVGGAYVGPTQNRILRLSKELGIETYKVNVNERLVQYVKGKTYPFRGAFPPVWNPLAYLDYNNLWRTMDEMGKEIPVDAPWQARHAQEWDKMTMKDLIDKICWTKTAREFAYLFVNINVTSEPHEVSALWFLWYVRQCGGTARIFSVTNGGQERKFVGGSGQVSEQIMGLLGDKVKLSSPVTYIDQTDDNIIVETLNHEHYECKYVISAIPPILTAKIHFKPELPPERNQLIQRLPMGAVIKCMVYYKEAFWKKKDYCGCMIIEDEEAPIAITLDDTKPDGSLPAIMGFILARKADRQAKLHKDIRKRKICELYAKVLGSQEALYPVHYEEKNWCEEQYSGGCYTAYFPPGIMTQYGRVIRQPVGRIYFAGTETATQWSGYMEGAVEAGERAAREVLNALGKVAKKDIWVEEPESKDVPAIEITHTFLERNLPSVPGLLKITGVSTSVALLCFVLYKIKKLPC
Procedure: Radiolabelled 5-hydroxytryptamine was used as the substrate for monoamine oxidase-A. Various concentrations of the compounds were incubated in appropriately diluted homogenates of rat brain or liver in a 0.2 M potassium phosphate buffer. Incubations proceeded at 37° C. for 10 minutes. Incubation was terminated by the addition of acid and the radiolabelled product (5-hydroxyindoleacetic acid) was extracted and quantified by liquid scintillation counting procedures. Incubations were done in triplicate and incubations containing phenelzine were included for comparison. The percent inhibition of monoamine oxidase-A activity compared to controls without the compounds of the present invention was calculated.

PC12 cells = test: PC12 neurite outgrowth (neurotrophic effect); assay type: cell-based; conditions: for Index of Neurite Outgrowth: seven days
Procedure: The effects of CVT-P040 on neurite outgrowth in cell culture were investigated using an established PC 12 pheochromocytoma cell culture. The effects of CVT-P040 and nerve growth factor on neurite outgrowth were estimated using the method described by Rydel, R. E and Greene, L. A.(1987), Acidic and basic fibroblast growth factors promote stable neurite outgrowth and basic neuronal differentiation in cultures of PC12 cells, J. Neuroscience 7: 3639-3653. Briefly, PC12 cells were seeded and maintained in 100 cm^2 tissue culture dishes at 37° C. in RPMI1640 media containing 1% antibiotics, 10% heat inactivated horse serum and 5% fetal bovine serum in a water saturated atmosphere of 95% air and 5% CO2. The cells were mechanically dislodged and plated into 35 mm collagen-coated tissue culture dishes containing a total of 2.0 ml complete medium at a density of […]. The medium was changed 3 times/week. Cellular responses to CVT-P040 and nerve growth factor (NGF) were determined by counting the number of PC12 cells containing processes. Photographs of the cells were taken after seven days treatment. Two cell fields were chosen in each dish and the photographs developed and printed. […] The neurite index was calculated using the following formula; Neurite Index=total neurite score (ΣS)/ total cell number (ΣN); ΣS=S1×N+S2×N +S3×N+S4×N, where N is the number of cells in each cell field.

[3] = test system: NA, DA, 5-HT, 5-HIAA and DOPAC concentrations in rat hypothalamus; test: Rat hypothalamus amine and amine metabolite concentrations; assay type: in vivo; conditions: 5.75 μmol/kg, 5 hr, ip
Procedure: The effects of various doses of CVT-P040 on the concentrations of hypothalamus amine neurotransmitters and their metabolites were evaluated by examining concentrations of noradrenaline (NA), dopamine (DA), 5-hydroxytryptamine (5-HT), 5-hydroxyindoleacetic acid (5-HIAA) and 3,4-dihydroxyphenylacetic acid (DOPAC) in rat hypothalami 5 hours after the injection of the drug. […] The brains were removed and divided in half. One half of the brain was frozen in isopentane on dry ice and retained for estimates of amino acid neurotransmitter concentrations. The other half had the hypothalamus removed and frozen on dry ice for later estimates of amines and their metabolites according to the method of Sloley, B. D. and Goldberg J. I. (1991), Determination of γ-glutamyl conjugates of monoamines by means of high-performance liquid chromatography with electrochemical detection and application to gastropod tissues, J. Chromatog. 567: 49-56. The rest of the brain was frozen on dry ice for ex vivo examination of MAO activity as described earlier.

[4] = test system: DSP-4 induced noradrenaline depletion in mouse hippocampus; test: Prevention of DSP-4 induced noradrenaline depletion in mouse hippocampus; assay type: in vivo
Procedure: (§1) Neuroprotectant activity was evaluated by examining the prevention of DSP-4 induced noradrenaline depletion in mouse hippocampus as described in Yu, P. H., Davis, B. A., Fang, J. and Boulton, A. A. (1994), Neuroprotective effect of some monoamine oxidase-B inhibitors against DSP-4 induced noradrenaline depletion in the mouse hippocampus, J. Neurochem. 63: 1820-1828. Briefly, mice were injected (i.p.) with either 20% DMSO or potential neuroprotectants (10 mg/kg in 20% DMSO). One hour later they were injected with either water or DSP-4 (50 mg/kg in water). One week later the mice were killed and the brains removed and the hippocampus dissected out. The hippocampus was frozen and saved for estimation of noradrenaline and other aminergic neurotransmitters and their metabolites as in Sloley, B. D. and Goldberg J. I. (1991), Determination of γ-glutamyl conjugates of monoamines by means of high-performance liquid chromatography with electrochemical detection and application to gastropod tissues, J. Chromatog. 567: 49-56. The rest of the brain was frozen and retained for estimation of monoamine oxidase activities ex vivo as described earlier.

[5] = test system: DSP-4 induced noradrenaline depletion in mouse hippocampus; test: as above; assay type: in vivo; conditions: 10 mg/kg then DSP-4 50 mg/kg; saline control experiment
[6] = test system: rat brain and liver monoamine oxidase-A; test: Monoamine oxidase-A inhibiting activity ex vivo; assay type: in vivo; conditions: 5.75 μmol/kg, 5 hr, i.p. in 10% DMSO
Procedure: (§2) Radiolabelled 5-hydroxytryptamine was used as a substrate for monoamine oxidase-A. The compounds of interest were either injected intraperitonealy in DMSO or administered by gavage in water for various periods. The animals were killed by decapitation and the brains and livers immediately removed and frozen until assayed for monoamine oxidase-A activity. Tissues were homogenized and appropriately diluted in buffer prior to incubation. Incubations proceeded at 37° C. for 10 minutes. Incubation was terminated by the addition of acid and the radiolabelled product (5-hydroxyindoleacetaldehyde and 5-hydroxyindoleacetic acid) was extracted and quantified by liquid scintillation counting procedures. Incubations were done in triplicate and incubations containing phenelzine were included for comparison. The percent inhibition of monoamine oxidase-A activity compared to controls containing no drug was calculated.
Values are the mean ± the standard error based on (n) determinations.
Oral doses were administered as 75 μmol/kg on day 1, 75 μmol/kg on
day 2 and the animals were killed 5 hours later.

MAO-A = MAO-A inhibition ex vivo in DSP-4 treated mice (brain); parameters: species or system mouse
Procedure: as §2, with “The compounds were evaluated for ex vivo monoamine oxidase-A inhibiting activity using the radiochemical procedure of Lyles, G. A. and Callingham, B. A. (1982). […] Biochem. Pharmacol. 31: 1417-1424. Radiolabelled” for “Radiolabelled”
as §1

[7] = 10 mg/kg i.p. then DSP-4 50 mg/kg, 20% DMSO control experiment

Molecule | inhibition at 100 µM [1] [%] | inhibition at 10 µM [1] [%] | inhibition at 100 µM [2] [%] | inhibition at 10 µM [2] [%] | inhibition at 1 µM [1] [%] | inhibition at 0.1 µM [1] [%] | inhibition at 0.01 µM [1] [%] | inhibition at 1 µM [2] [%] | inhibition at 0.1 µM [2] [%] | inhibition at 0.01 µM [2] [%] | further results
C#CCNNCCc1ccccc1 [CVT-P039, N^2 -propargylphenelzine] | 20.9 | -0.2 | 31.6 | -25.8 |  |  |  |  |  |  | 
C#CCN(N)Cc1ccccc1 [CVT-P046, N^1 -propargylbenzylhydrazine] | 100 | 92.3 | 100 | 99.4 | 86.2 | 64.9 | 18.6 | 49.4 | 18.5 | -5 | 
C#CCN(N)c1ccccc1 [CVT-P047, N^1 -propargylphenylhydrazine] | 100 | 94.3 | 99.7 | 78.2 | 65.1 | 17.9 | 0.1 | 15.9 | -3.8 | -2.9 | 
NGF: nerve growth factor (NGF) |  |  |  |  |  |  |  |  |  |  | Index of Neurite Outgrowth (PC12 cells; NGF 0.1 ng/ml): 0.58 ± 0.03; Index of Neurite Outgrowth (PC12 cells; NGF 0.3 ng/ml): 0.79 ± 0.07; Index of Neurite Outgrowth (PC12 cells; NGF 1.0 ng/ml): 1.16 ± 0.06; neurite outgrowth in PC12 cells (PC12 cells; NGF 0.1, 0.3 and 1.0 ng/ml, in words): increased neurite outgrowth in PC12 cells
C#CCN(C)[C@H](C)Cc1ccccc1 [(-)-deprenyl, reference compound] |  |  |  |  |  |  |  |  |  |  | 5-HIAA [3]: 407 ± 22 ng/g; 5-HT [3]: 821 ± 44 ng/g; DA [3]: 541 ± 44 ng/g; DOPAC [3]: 87 ng/g; NA [3]: 1510 ± 70 ng/g; % NA Restoration [4, 7]: 86.6%; NA [4, 7]: 315 ± 34 ng/g; protection against DSP-4 induced noradrenaline depletion / neuroprotective effect ([4]; 10 mg/kg, mouse hippocampus, in words): significantly protected against DSP-4 induced noradrenaline depletion; % NA Restoration [5]: 73.1%; NA [5]: 432 ± 13 ng/g; % Inhibition Monoamine Oxidase-A ([6]; brain): -0.6 ± 1.1%; % Inhibition Monoamine Oxidase-A ([6]; liver): 8.0 ± 2.2%; MAO-A % Inhibition (MAO-A; [7]): 18.8 ± 6.0%; MAO-A % Inhibition (MAO-A; 10 mg/kg then DSP-4 50 mg/kg, saline control experiment): 9.9 ± 6.0%
